Assays:
[1] = system: patients with type 2 diabetes; details: overt diabetic nephropathy; cited from earlier work
[2] = Storage of Form A crystals at room temperature (XRPD and HPLC control); type: physicochemical; details: 20-25° C., 92% relative humidity
Description: All XRPD patterns for the solid forms described herein have been obtained as described hereafter. X-ray powder diffraction patterns were collected on a Bruker D8 Advance X-ray diffractometer equipped with a Lynxeye detector operated with CuKα-radiation in reflection mode (coupled two Theta/Theta). Typically, the X-ray tube was run at of 40 kV/40 mA. A step size of 0.02° (2θ) and a step time of 76.8 sec over a scanning range of 3-50° in 2θ were applied. The divergence slit was set to fixed 0.3. Powders were slightly pressed into a silicon single crystal sample holder with depth of 0.5 mm and samples were rotated in their own plane during the measurement. Diffraction data are reported using combined Cu Kα1 and Kα2 radiation, without Kα2 stripping. The accuracy of the 2θ values as provided herein is in the range of +/−0.1-0.2° as it is generally the case for conventionally recorded X-ray powder diffraction patterns. A sample of Form A crystals of the COMPOUND (as obtained according to Example 1 above) has been stored at a temperature of 20-25° C. at 92% relative humidity for 2 months. […] The same result was obtained after storage for 8 weeks under the above conditions.

[3] = Hygroscopicity by gravimetric vapor sorption (GVS); type: physicochemical
Description: Mass increase of a sample as obtained according to Example 1 in the first cycle from 40% r.h. to 80% r.h. corresponds to 0.4%. At 95% r.h. 2.2% moisture were taken up in a reversible way without hysteresis upon drying.

[4] = system: Spontaneously hypertensive rats (SHR); assay: Blood pressure by telemetry in SHR, SGLT-2 inhibitor alone or in combination with ACT-132577; type: in vivo, rat; details: for Maximal effect on MAP of SGLT2 inhibitor alone: 30 mg/kg/day by gavage
Description: Spontaneously hypertensive rats (SHR) are instrumented micro-surgically with a telemetry pressure transmitter implanted in the peritoneal cavity (Data Science International, Minnesota, USA) under isoflurane-induced narcosis. In brief, the pressure catheter is inserted into the aorta, below the renal artery pointing upstream. The abdomen is closed and the transmitter sutured to the abdominal musculature. Blood pressure is collected continuously using the Dataquest ART Platinum acquisition system (version 4.36). Drugs (ACT-132577 or SGLT2 inhibitors) or vehicle are administered by gavage (n=4-7 per group) alone or in combination. Systolic, mean and diastolic arterial pressures, and heart rate are collected at 5-minute intervals until the blood pressure curve comes back to baseline.
Because it takes several days for the SGLT2 inhibitors to exert an effect on blood pressure, rats are treated first for 12 days with either vehicle (5 ml/kg/day), or canagliflozin (30 mg/kg/day) or empagliflozin (30 mg/kg/day), then ACT-132577 (30 mg/kg/day) is co-administered for 3 additional days.

[5] = system: conscious, male hypertensive Dahl salt-sensitive rats; assay: Acute effects on MAP and HR by telemetry in Dahl salt-sensitive rats; type: in vivo, rat; details: Dahl-S rats
Description: The acute effects of ACT-132577 on blood pressure, in particular on mean arterial blood pressure (hereafter “MAP”), and heart rate (hereafter “HR”) can be evaluated by means of telemetry in conscious, male hypertensive Dahl salt-sensitive rats (hereafter “Dahl-S rats”—see details about this model in Rapp, Hypertension (1982), 4, 753-763). Elevated blood pressure is induced in Dahl-S rats by providing 1% sodium chloride in drinking water. Groups of 6-7 Dahl-S rats are used for the vehicle (7.5% gelatin aqeuous solution) and each dose of ACT-132577 tested (0.3, 1, 3, 10, 30, 100, and 300 mg/kg). Effects of ACT-132577 on HR and MAP are calculated for individual animals relative to the 24 h period before administering. The results obtained regarding MAP (maximal MAP decrease observed over 6 consecutive hours) are summarised in FIG. 3 (data are presented as mean±standard error of the mean). […] In contrast to MAP, HR was not affected.

[6] = system: conscious, male hypertensive deoxycorticosterone acetate salt rats; assay: Acute effects on MAP and HR by telemetry in DOCA-salt rats; type: in vivo, rat
Description: The acute effects of ACT-132577 on blood pressure, in particular on mean arterial blood pressure (hereafter “MAP”), and heart rate (hereafter “HR”) can be evaluated by means of telemetry in conscious, male hypertensive deoxycorticosterone acetate salt rats (hereafter “DOCA-salt rats”—see details about this model in Gavras et al., Circ. Res. (1975), 36, 300-309). In the DOCA-salt rats, hypertension is induced by the combination of unilateral nephrectomy, implantation of pellets of the mineralocorticoid analog DOCA, and provision of 1% sodium chloride in drinking water. Groups of 6-11 DOCA-salt rats are used for the vehicle (7.5% gelatin aqeuous solution) and each dose of ACT-132577 tested (0.3, 1, 3, 10, 30, 100, and 300 mg/kg). Effects of ACT-132577 on HR and MAP are calculated for individual animals relative to the 24 h period before administering. The results obtained regarding MAP (maximal MAP decrease observed over 6 consecutive hours) are summarised in FIG. 4 (data are presented as mean±standard error of the mean). […] In contrast to MAP, HR was not affected.

[7] = system: conscious, male spontaneaously hypertensive rats; assay: Acute effects on MAP and HR by telemetry in SHRs; type: in vivo, rat
Description: The acute effects of ACT-132577 on blood pressure, in particular on mean arterial blood pressure (hereafter “MAP”), and heart rate (hereafter “HR”) can be evaluated by means of telemetry in conscious, male spontaneaously hypertensive rats (hereafter “SHRs”—see details about this model in Atanur et al., Genome Res. (2010), 20, 791-803). Groups of 4-6 SHRs are used for the vehicle (7.5% gelatin aqeuous solution) and each dose of ACT-132577 tested (1, 3, 10, 30, 100, and 300 mg/kg). Effects of ACT-132577 on HR and MAP are calculated for individual animals relative to the 24 h period before administering. The results obtained regarding MAP (maximal MAP decrease observed over 6 consecutive hours) are summarised in FIG. 5 (data are presented as mean±standard error of the mean). […] In contrast to MAP, HR was not affected.

[8] = system: conscious, male hypertensive deoxycorticosterone acetate salt rats; assay: Chronic effects of ACT-132577 in DOCA-salt rats; type: in vivo, rat
Description: Res. (1975), 36, 300-309). In the DOCA-salt rats, hypertension is induced by the combination of unilateral nephrectomy, implantation of pellets of the mineralocorticoid analog DOCA, and provision of 1% sodium chloride in drinking water. The results of the DOCA-salt rats treated with ACT-132577 can be compared to those obtained for Wistar rats or for DOCA-salt rats that received only the vehicle (4% gelatin aqueous solution).

[9] = system: male Wistar rats; assay: Effect on fluid retention: haematocrit in Wistar rats; type: in vivo, rat; details: single oral dose 1-30 mg/kg, 24 hours after administration
Description: A decrease in haematocrit (Hct) or haemoglobin occurs secondary to an increase in plasma volume and can be used as a marker of fluid retention. A single oral dose of ACT 132577 (1-30 mg/kg) or vehicle (gelatin) is administered by gavage to male Wistar rats. Twenty-four hours after administration, sublingual blood was sampled under isoflurane-induced anesthesia. Haematocrit is measured using a hematology analyser.

[10] = system: conscious, male spontaneaously hypertensive rats; assay: Acute effects of Exforge HCT alone or with ACT-132577 or spironolactone in SHRs; type: in vivo, rat; details: for Blood pressure when added on top of Exforge HCT: aprocitentan 100 mg/kg or spironolactone 300 mg/kg oral
Description: The acute effects of Exforge HCT® (i.e. a fixed dose combination of valsartan/amlodipine/hydrochlorothiazide; dosage adapted for 1.6 mg/kg/0.1 mg/kg/0.25 mg/kg for valsartan/amlodipine/hydrochlorothiazide, respectively) on blood pressure, in particular on mean arterial blood pressure (hereafter “MAP”), and heart rate (hereafter “HR”) in combination with ACT-132577 or spironolactone can be evaluated by means of telemetry in conscious, male spontaneaously hypertensive rats (hereafter “SHRs”—see details about this model in Atanur et al., Genome Res. (2010), 20, 791-803).
9 SHRs per treatment group are used for this test. To match the maximal effect on blood pressure of co-administereds drug in this model, aprocitentan 100 mg/kg is administrated orally on the 3rd day following 3-day oral administration of Exforge HCT® mg/kg and spironolactone 300 mg/kg is co-administered orally with Exforge HCT® on the 1st day followed by 2 days of Exforge HCT® administration. The results obtained regarding MAP are summarised in FIGS. 15 and 16 wherein each data point is presented as a 6-hour mean.

[11] = system: conscious, male hypertensive deoxycorticosterone acetate salt rats; assay: Acute effects of Exforge HCT alone or with ACT-132577 or spironolactone in DOCA-salt rats; type: in vivo, rat; details: for Blood pressure when added on top of Exforge HCT: aprocitentan 10 mg/kg or spironolactone 300 mg/kg, single oral doses
Description: Res. (1975), 36, 300-309). In the DOCA-salt rats, hypertension is induced by the combination of unilateral nephrectomy, implantation of pellets of the mineralocorticoid analog DOCA, and provision of 1% sodium chloride in drinking water. 7-9 DOCA-salt rats per treatment group are used for this test. The results obtained regarding MAP are summarised in FIGS. 17 and 18 wherein each data point is presented as a 6-hour mean.

[12] = in comparison to corresponding alkylated derivatives; cited from earlier work
[13] = system: patients with rHT; details: 14 week phase 3 trial, versus 12% in each of the other groups; cited from earlier work
[14] = chronic oral administration, DOCA-salt rats
[15] = oral, 1, 10 and 100 mg/kg/day for 4 weeks

Compound: COc1ccccc1Oc1c(NS(=O)(=O)c2ccc(C)cn2)nc(-c2ccncc2)nc1OC [Avosentan, avosentan]
- Albumin-to-creatinine ratio (ACR) [1]: significantly reduced

Compound: NS(=O)(=O)Nc1ncnc(OCCOc2ncc(Br)cn2)c1-c1ccc(Br)cc1 [Form A, {5-(4-bromo-phenyl)-6-[2-(5-bromo-pyrimidin-2-yloxy)-ethoxy]-pyrimidin-4-yl}-sulfamide]
- X-ray powder diffraction of the sample after storage ([2]; 2 months): still consisting only in Form A crystals
- HPLC control after storage (change in peak area %, degradation) ([2]; 8 weeks): no significant degradation
- Moisture taken up ([3]; at 95% r.h., reversible, without hysteresis upon drying): 2.2%
- Mass increase ([3]; first cycle from 40% r.h. to 80% r.h.): 0.4%
- Hygroscopicity (GVS) ([3]; sample as obtained according to Example 1): slightly hygroscopic

Compound: OC[C@H]1O[C@@H](c2ccc(Cl)c(Cc3ccc(O[C@H]4CCOC4)cc3)c2)[C@H](O)[C@@H](O)[C@@H]1O [empagliflozin, reference compound]
- Maximal effect on MAP of SGLT2 inhibitor alone [4]: −13±3 mmHg

Compound: NS(=O)(=O)Nc1ncnc(OCCOc2ncc(Br)cn2)c1-c1ccc(Br)cc1 [ACT-132577, {5-(4-bromo-phenyl)-6-[2-(5-bromo-pyrimidin-2-yloxy)-ethoxy]-pyrimidin-4-yl}-sulfamide]
- Heart rate (HR) [5]: not affected
- MAP decrease (maximal MAP decrease observed over 6 consecutive hours) ([5]; 10 mg/kg, mean±SEM): 19±4 mm Hg
- Heart rate (HR) [6]: not affected
- MAP decrease (maximal MAP decrease observed over 6 consecutive hours) ([6]; 10 mg/kg, mean±SEM): 29±6 mm Hg
- Heart rate (HR) [7]: not affected
- MAP decrease (maximal MAP decrease observed over 6 consecutive hours) ([7]; 100 mg/kg, mean±SEM): 18±4 mm Hg
- Left ventricular hypertrophy [8, 14]: tended to decrease
- Plasma concentrations of N-terminal pro-brain natriuretic peptide (NTproBNP) [8, 14]: dose-dependent decrease
- Renal blood flow [8, 14]: dose-dependently increased
- Renal vascular resistance [8, 14]: decreased
- DOCA-salt-induced increase in MAP [8, 15]: dose-dependently attenuated
- Heart rate (HR) [8, 15]: without changing HR
- Haematocrit (Hct), marker of fluid retention [9]: did not impact
- Further decrease of blood pressure (MAP) on top of canagliflozin ([4]; ACT-132577 30 mg/kg/day for 3 days after 12 days canagliflozin 30 mg/kg/day): −14±1 mmHg
- Further decrease of blood pressure (MAP) on top of empagliflozin ([4]; ACT-132577 30 mg/kg/day for 3 days after 12 days empagliflozin 30 mg/kg/day): −18±3 mmHg
- Decrease in blood pressure (MAP) on top of vehicle, without canagliflozin ([4]; ACT-132577 30 mg/kg/day on top of vehicle (canagliflozin comparison)): −16±2 mmHg
- Decrease in blood pressure (MAP) on top of vehicle, without empagliflozin ([4]; ACT-132577 30 mg/kg/day on top of vehicle (empagliflozin comparison)): −14±2 mmHg
- Blood pressure when added on top of Exforge HCT [10]: further reduced blood pressure
- Blood pressure reduction compared with spironolactone, on top of Exforge HCT ([10]; aprocitentan 100 mg/kg vs spironolactone 300 mg/kg): greater blood pressure reduction than spironolactone
- Blood pressure when added on top of Exforge HCT [11]: further reduced blood pressure
- Blood pressure reduction compared with spironolactone, on top of Exforge HCT ([11]; aprocitentan 10 mg/kg vs spironolactone 300 mg/kg): greater blood pressure reduction than spironolactone
- Clearance in vivo [12]: much shorter
- Half-life in vivo [12]: much longer

Compound: canagliflozin [reference compound]
- Maximal effect on MAP of SGLT2 inhibitor alone [4]: −9±1 mmHg

Compound: CC(=O)S[C@@H]1CC2=CC(=O)CC[C@]2(C)[C@H]2CC[C@@]3(C)[C@@H](CC[C@@]34CCC(=O)O4)[C@H]12 [spironolactone, reference compound]
- Blood pressure when added on top of Exforge HCT [10]: further reduced blood pressure
- Blood pressure when added on top of Exforge HCT [11]: further reduced blood pressure

Compound: COc1cc(OC)nc(O[C@H](C(=O)O)C(OC)(c2ccccc2)c2ccccc2)n1 [darusentan]
- Fluid retention/edema (most frequent adverse event) [13]: 28%

From patent publication US12144811B2, “Combination of a 4-pyrimidinesulfamide derivative with an SGLT-2 inhibitor for the treatment of endothelin related diseases” (IDORSIA PHARMACEUTICALS LTD, priority 2017, dated 2024)
